Data as given in article PMC3833348 (MedChemComm, 2013).
Blank lines part the entries; values can stand above or below the molecule they belong to.

Key:
P-gp [1] = biological target: T1, P-gp (Homo sapiens, UniProt P08183); assay: Inhibition of P-gp-mediated efflux of NBD-Aba in hCMEC/D3 cells; assay type: cell-based
P-gp [2] = details: cited from earlier work
P-gp [3] = biological target: T1, P-gp; assay: Substrate accumulation assays in MCF-7/DX1 cells; assay type: cell-based
[4] = Solubility in aqueous buffer; assay type: physicochemical; details: as compared to Aba-C10

T1 sequence (P08183 whole entry): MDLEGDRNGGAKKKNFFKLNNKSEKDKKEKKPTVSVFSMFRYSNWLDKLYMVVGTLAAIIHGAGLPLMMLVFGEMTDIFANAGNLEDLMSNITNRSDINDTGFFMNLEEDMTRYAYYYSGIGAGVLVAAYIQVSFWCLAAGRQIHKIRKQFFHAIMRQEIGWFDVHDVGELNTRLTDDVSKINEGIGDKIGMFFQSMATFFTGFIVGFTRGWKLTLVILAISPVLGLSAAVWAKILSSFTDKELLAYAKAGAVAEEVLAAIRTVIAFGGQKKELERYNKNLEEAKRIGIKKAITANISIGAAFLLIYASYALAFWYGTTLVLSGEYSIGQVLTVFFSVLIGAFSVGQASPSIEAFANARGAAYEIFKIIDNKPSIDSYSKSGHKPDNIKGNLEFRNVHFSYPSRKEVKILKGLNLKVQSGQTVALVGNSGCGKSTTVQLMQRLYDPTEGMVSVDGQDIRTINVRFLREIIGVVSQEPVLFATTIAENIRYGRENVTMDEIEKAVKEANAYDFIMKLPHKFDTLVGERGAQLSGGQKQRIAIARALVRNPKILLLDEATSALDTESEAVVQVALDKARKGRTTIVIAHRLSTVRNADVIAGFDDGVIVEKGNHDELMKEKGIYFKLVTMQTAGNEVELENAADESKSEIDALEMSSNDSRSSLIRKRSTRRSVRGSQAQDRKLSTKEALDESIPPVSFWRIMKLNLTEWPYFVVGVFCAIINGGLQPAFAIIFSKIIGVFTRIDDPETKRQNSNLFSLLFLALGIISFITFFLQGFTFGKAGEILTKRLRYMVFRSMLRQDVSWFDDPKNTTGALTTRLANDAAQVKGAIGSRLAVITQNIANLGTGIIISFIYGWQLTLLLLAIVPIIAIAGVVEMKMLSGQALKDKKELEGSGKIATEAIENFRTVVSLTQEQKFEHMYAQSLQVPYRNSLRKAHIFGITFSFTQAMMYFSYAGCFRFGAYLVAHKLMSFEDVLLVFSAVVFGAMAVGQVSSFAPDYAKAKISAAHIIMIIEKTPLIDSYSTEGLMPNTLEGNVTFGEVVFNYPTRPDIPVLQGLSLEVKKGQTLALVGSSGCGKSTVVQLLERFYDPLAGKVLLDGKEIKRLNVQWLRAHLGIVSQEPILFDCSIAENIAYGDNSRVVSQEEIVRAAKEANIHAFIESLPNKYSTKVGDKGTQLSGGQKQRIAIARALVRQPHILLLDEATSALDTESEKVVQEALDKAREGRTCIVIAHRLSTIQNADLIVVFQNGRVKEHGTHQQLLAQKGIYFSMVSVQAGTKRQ

Fold more potent than monomeric abacavir (P-gp [1]): greater than 500 fold
Structure (SMILES): Nc1nc(NC2CC2)c2ncn([C@H]3C=C[C@@H](COC(=O)CCCCCCCCCCC(=O)OC[C@@H]4C=C[C@H](n5cnc6c(NC7CC7)nc(N)nc65)C4)C3)c2n1 [Aba-C10]

Effect on transport in MCF-7/DX1 cells (P-gp [3]; up to a concentration of 100 µM, data not shown): no effect on transport
Structure (SMILES): Nc1nc(NC2CC2)c2ncn([C@H]3C=C[C@@H](CO)C3)c2n1 [abacavir, reference compound]
Fold increase in brain levels, P-gp-null mice versus wild-type mice (P-gp [2]): 20 fold

Fold decrease of potency in MCF-7/DX1 cells versus 12D7-MDR (P-gp [3]; NBD-Aba as substrate): ~6 fold
Fold decrease of potency in MCF-7/DX1 cells versus hCMEC/D3 (P-gp [3]; NBD-Aba as substrate): about 3 fold
Inhibition of efflux of each of the substrates in MCF-7/DX1 cells (P-gp [3]; substrates BODIPY-prazosin, doxorubicin, [3H]-daunomycin and NBD-Aba): effectively inhibit efflux
Solubility in aqueous buffer [4]: more favorable solubility
Structure (SMILES): Nc1nc(NC2CC2)c2ncn([C@H]3C=C[C@@H](COC(=O)CCCCCCCCC(=O)OC[C@@H]4C=C[C@H](n5cnc6c(NC7CC7)nc(N)nc65)C4)C3)c2n1 [Aba-C8]
